In paper PMC5826148, “Whole-Cell Screen of Fragment Library Identifies Gut Microbiota Metabolite Indole Propionic Acid as Antitubercular” (Antimicrobial Agents and Chemotherapy, 2018):
≈ marks a conversion by molar mass, not a printed value. Like-named read-outs stand apart in the source and are kept apart here.

Tests used:
[1] = Cytotoxicity assay, HepG2 cells (CellTiter 96 AQueous One); settings: human, HepG2 cells
[2] = system: M. tuberculosis H37Rv; experiment: M. tuberculosis growth inhibition dose-response (MIC50), turbidity readout; assay type: cell-based, Mycobacterium tuberculosis; settings: Mycobacterium tuberculosis, 240 h, read-out: Antibacterial activity (MIC50) M. tuberculosis
[3] = system: M. abscessus; experiment: Spectrum of activity: M. abscessus growth inhibition; assay type: cell-based; settings: Mycobacteroides abscessus, 72 h, read-out: Antibacterial activity (MIC50) M. abscessus
[4] = system: M. tuberculosis; experiment: Growth inhibition in acidic medium (pH 6.2); assay type: cell-based, Mycobacterium tuberculosis
[5] = system: M. bovis BCG Pasteur; experiment: microbe, parasite or virus in culture; assay type: cell-based; settings: Mycobacterium tuberculosis variant bovis BCG, BCG, read-out: Antibacterial activity (MIC50) M. bovis BCG
[6] = system: M. smegmatis; experiment: Spectrum of activity: M. smegmatis growth inhibition; assay type: cell-based; settings: Mycolicibacterium smegmatis, 24 h, read-out: Antibacterial activity (MIC50) M. smegmatis
[7] = system: Escherichia coli; experiment: Spectrum of activity: E. coli growth inhibition; assay type: cell-based; settings: Escherichia coli, read-out: Antibacterial activity (MIC50) E. coli
[8] = system: Staphylococcus aureus; experiment: Spectrum of activity: S. aureus growth inhibition; assay type: cell-based; settings: Staphylococcus aureus, read-out: Antibacterial activity (MIC50) S. aureus
[9] = Cytotoxicity assay, THP-1 cells (CellTiter 96 AQueous One); settings: human
[10] = system: M. tuberculosis H37Rv; experiment: Bactericidal activity, CFU enumeration on agar after treatment; assay type: cell-based, Mycobacterium tuberculosis; settings: Mycobacterium tuberculosis, H37RV, read-out: Bactericidal activity (log reduction) at 1 mM
[11] = system: M. avium; experiment: Spectrum of activity: M. avium growth inhibition; assay type: cell-based; settings: Mycobacterium avium, 96 h, read-out: Antibacterial activity (MIC50) M. avium
[12] = system: human red blood cells (RBCs); experiment: Red blood cell lysis assay; settings: hemolysis
[13] = Mycobacterium tuberculosis, pH 6.2; read-out: Activity (MIC50) in acidic medium (pH 6.2)
[14] = M. tuberculosis, 1 mM, log CFU/ml reduction from initial inoculum
[15] = Mycobacterium tuberculosis, pH 6.2, read-out: Activity (MIC50) in acidic medium (pH 6.2)

Compound	CC50 at 24 h [1] [µM]	MIC50 ([2]; H37Rv, 10 days) [µM]	MIC50 ([3]; 3 days) [µM]	MIC50 [4, 13] [µM]	MIC50 [5] [µM]	MIC50 ([6]; 1 day) [µM]	MIC50 ([7]; LB medium, overnight) [µM]	MIC50 ([8]; LB medium, overnight) [µM]	CC50 at 24 h [9] [µM]	log reduction at 1000 µM [10, 14]	MIC50 ([11]; 4 days) [µM]	RBCs HC50 [12]	MIC50 ([2]; H37RV) [µM]	MIC50 [3] [µM]	MIC50 [4, 15] [µM]	MIC50 [6] [µM]	MIC50 [7] [µM]	MIC50 [8] [µM]	log reduction at 1000 µM [10]	MIC50 [11] [µM]
O=c1cc(C(F)(F)F)c2ccc(O)cc2o1 [Fragment F2, 7-Hydroxy-4-(trifluoromethyl)-2H-chromen-2-one]	987	213 (≈ 49 µg/mL)	> 500	179 (≈ 41.2 µg/mL)	329 (≈ 75.7 µg/mL)	476 (≈ 110 µg/mL)	432 (≈ 99.4 µg/mL)	198 (≈ 45.6 µg/mL)	879	1.1	> 500	>1,000 μM	–	–	–	–	–	–	–	–
Cc1ncc(C(N)=S)[nH]1 [Fragment F3, 2-Methyl-1H-imidazole-4-carbothioamide]	> 1000	105 (≈ 14.8 µg/mL)	304 (≈ 42.9 µg/mL)	98 (≈ 13.8 µg/mL)	134 (≈ 18.9 µg/mL)	> 500	> 500	> 500	850	1.87	198 (≈ 28 µg/mL)	>1,000 μM	–	–	–	–	–	–	–	–
COC(=O)c1cc2ccccc2cn1 [Fragment F4, Methyl isoquinoline-3-carboxylate]	> 1000	175 (≈ 32.8 µg/mL)	> 500	158 (≈ 29.6 µg/mL)	143 (≈ 26.8 µg/mL)	389 (≈ 72.8 µg/mL)	> 500	> 500	> 1000	1.98	344 (≈ 64.4 µg/mL)	>1,000 μM	–	–	–	–	–	–	–	–
Nc1ccc2oc3c(c2c1)CCCC3 [Fragment F5, 6,7,8,9-Tetrahydrodibenzo [b,d]furan-2-amine]	> 1000	245 (≈ 45.9 µg/mL)	> 500	62 (≈ 11.6 µg/mL)	488 (≈ 91.4 µg/mL)	> 500	> 500	> 500	> 1000	1.11	> 500	>1,000 μM	–	–	–	–	–	–	–	–
c1ccc2c(c1)[nH]c1cnccc12 [Fragment F6, 9H-Pyrido[3,4-b]indole]	–	–	–	–	205 (≈ 34.5 µg/mL)	–	–	–	–	–	–	787 µM	97 (≈ 16.3 µg/mL)	254 (≈ 42.7 µg/mL)	113 (≈ 19 µg/mL)	121 (≈ 20.4 µg/mL)	302 (≈ 50.8 µg/mL)	> 500	0.43	302 (≈ 50.8 µg/mL)
Cc1oc(-c2ccc(Cl)cc2)cc1C(=O)N(C)C [Fragment F8, 5-(4-Chlorophenyl)-N,N,2-trimethyl-3-furamide]	589	135 (≈ 35.6 µg/mL)	322 (≈ 84.9 µg/mL)	93 (≈ 24.5 µg/mL)	189 (≈ 49.8 µg/mL)	233 (≈ 61.4 µg/mL)	> 500	> 500	234	1.44	169 (≈ 44.6 µg/mL)	433 µM	–	–	–	–	–	–	–	–
COC(=O)c1sc2ccccc2c1O [Fragment F9, Methyl 3-hydroxy-1-benzo thiophene-2-carboxylate]	–	142 (≈ 29.6 µg/mL)	> 500	240 (≈ 50 µg/mL)	> 500	> 500	> 500	217 (≈ 45.2 µg/mL)	–	2.09	> 500	>1,000 μM	–	–	–	–	–	–	–	–
O=C(O)c1ccc(-c2ccccc2)s1 [Fragment F10, 5-Phenylthiophene-2-carboxylic acid]	612	186 (≈ 38 µg/mL)	247 (≈ 50.4 µg/mL)	97 (≈ 19.8 µg/mL)	397 (≈ 81.1 µg/mL)	345 (≈ 70.5 µg/mL)	> 500	> 500	544	1.46	> 500	>1,000 μM	–	–	–	–	–	–	–	–
CSc1cc(-c2ccc(F)cc2)n[nH]1 [Fragment F11, 3-(4-Fluorophenyl)-5-(methylsulfanyl)-1H-pyrazole]	945	195 (≈ 40.6 µg/mL)	271 (≈ 56.4 µg/mL)	140 (≈ 29.2 µg/mL)	308 (≈ 64.1 µg/mL)	398 (≈ 82.9 µg/mL)	344 (≈ 71.6 µg/mL)	> 500	765	3.06	498 (≈ 104 µg/mL)	>1,000 μM	–	–	–	–	–	–	–	–
Clc1ccc2nc(N3CCCNCC3)sc2c1 [Fragment F12, 6-Chloro-2-(1,4-diazepan-1-yl)-1,3-benzothiazole]	187	198 (≈ 53 µg/mL)	351 (≈ 94 µg/mL)	104 (≈ 27.8 µg/mL)	137 (≈ 36.7 µg/mL)	221 (≈ 59.2 µg/mL)	324 (≈ 86.8 µg/mL)	> 500	124	2.8	157 (≈ 42 µg/mL)	>1,000 μM	–	–	–	–	–	–	–	–
O=C(O)c1cc2ccccc2cn1 [Fragment F14, Isoquinoline-3-carboxylic acid]	–	–	–	–	193 (≈ 33.4 µg/mL)	–	–	–	–	–	–	>1,000 μM	235 (≈ 40.7 µg/mL)	> 500	87 (≈ 15.1 µg/mL)	176 (≈ 30.5 µg/mL)	193 (≈ 33.4 µg/mL)	304 (≈ 52.6 µg/mL)	1.97	473 (≈ 81.9 µg/mL)
Cc1n[nH]c(C)c1Oc1ccc(Cl)cc1 [Fragment F15, 4-(4-Chlorophenoxy)-3,5-dimethyl-1H-pyrazole]	676	235 (≈ 52.3 µg/mL)	256 (≈ 57 µg/mL)	157 (≈ 35 µg/mL)	156 (≈ 34.7 µg/mL)	198 (≈ 44.1 µg/mL)	> 500	79 (≈ 17.6 µg/mL)	345	2.43	174 (≈ 38.7 µg/mL)	453 µM	–	–	–	–	–	–	–	–
Cc1cc(C(=O)O)c(C)n1Cc1cccs1 [Fragment F16, 2,5-Dimethyl-1-(2-thienylmethyl)-1H-pyrrole-3-carboxylic acid]	766	247 (≈ 58.1 µg/mL)	> 500	345 (≈ 81.2 µg/mL)	> 500	> 500	> 500	> 500	724	1.89	> 500	>1,000 μM	–	–	–	–	–	–	–	–
Cc1ccc2c(c1)N(CCO)C(C)(C)CC2C.O (stereo not shown) [Fragment F18, 2-(2,2,4,7-Tetramethyl-1,2,3,4-tetrahydroquinolin-1-yl)ethan-1-ol hydrate]	–	–	–	–	87	–	–	–	–	–	–	471 µM	268	247	86	205	> 500	189	1.67	198
